Data: publication PMC4370629, “Structural and Functional Studies of Phosphoenolpyruvate Carboxykinase from Mycobacterium tuberculosis” (PLoS ONE, 2015)

Biological target: T1, Mtb Pck (Mycobacterium tuberculosis, UniProt P9WIH3)
T1 construct: gene pckG
Assay: biochemical

T1 sequence (P9WIH3 whole entry): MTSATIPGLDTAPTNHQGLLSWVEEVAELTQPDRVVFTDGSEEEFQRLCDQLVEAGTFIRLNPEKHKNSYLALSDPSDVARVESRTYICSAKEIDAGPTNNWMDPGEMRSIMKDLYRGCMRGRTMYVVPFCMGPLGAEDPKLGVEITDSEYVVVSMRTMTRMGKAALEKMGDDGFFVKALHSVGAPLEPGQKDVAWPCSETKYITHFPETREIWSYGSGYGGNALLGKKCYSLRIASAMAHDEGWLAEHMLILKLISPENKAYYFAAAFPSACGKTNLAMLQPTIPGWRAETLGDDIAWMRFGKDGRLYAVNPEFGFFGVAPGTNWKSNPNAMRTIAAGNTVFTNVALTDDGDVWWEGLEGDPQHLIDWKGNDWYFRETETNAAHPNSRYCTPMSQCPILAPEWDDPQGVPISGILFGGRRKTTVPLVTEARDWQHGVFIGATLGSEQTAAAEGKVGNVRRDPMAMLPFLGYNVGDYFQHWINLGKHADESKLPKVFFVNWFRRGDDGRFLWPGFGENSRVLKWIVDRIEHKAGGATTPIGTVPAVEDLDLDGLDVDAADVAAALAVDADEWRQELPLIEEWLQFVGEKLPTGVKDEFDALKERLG

## Nc1nc2c(ncn2[C@@H]2O[C@H](COP(=O)(O)OP(=O)(O)OP(=O)(O)O)[C@@H](O)[C@H]2O)c(=O)[nH]1 [GTP]
  Kd: 7.3 µM
